{"source": "paper PMC4850393", "about": "“Sequence diversity of NanA manifests in distinct enzyme kinetics and inhibitor susceptibility” (Scientific Reports, 2016)", "key": {"20566-CC (NanA-DSM20566) [1]": {"target": "T1, 20566-CC (NanA-DSM20566) (Streptococcus pneumoniae, UniProt P62576)", "T1 construct": "catalytic domain only, residues 311-833 (523 aa), N-terminal 6xHis (pET-28a), ~62 kDa, E. coli BL21(DE3); catalytic domain printed as identical to CF8919", "assay": "chemiluminescence NA-Star assay", "format": "biochemical", "settings": "read-out: 50% inhibitory concentration (μM) ^a / DANA", "description": "chemiluminescence NA-Star assay on 20566-CC (NanA-DSM20566)"}, "20566-LC (NanA-DSM20566)": {"target": "T2, 20566-LC (NanA-DSM20566) (Streptococcus pneumoniae, UniProt P62576)", "T2 construct": "lectin (CBM40) + catalytic domains, residues 116-833, N-terminal 6xHis (pET-28a), ~84 kDa, E. coli BL21(DE3), cobalt column", "assay": "chemiluminescence NA-Star assay", "format": "biochemical", "settings": "read-out: 50% inhibitory concentration (μM) ^a / DANA", "description": "chemiluminescence NA-Star assay on 20566-LC (NanA-DSM20566)"}, "20566-CC (NanA-DSM20566) [2]": {"target": "20566-CC (NanA-DSM20566) (Streptococcus pneumoniae, UniProt P62576, G441A/I442V/K440R)", "assay": "biochemical"}, "20566-CC (NanA-DSM20566) [3]": {"target": "T3, 20566-CC (NanA-DSM20566) (Streptococcus pneumoniae, UniProt P62576, I442V)", "assay": "biochemical"}, "20566-CC (NanA-DSM20566) [4]": {"target": "20566-CC (NanA-DSM20566) (Streptococcus pneumoniae, UniProt P62576, K440R/G441A/I442V)", "settings": "read-out: 20566-CC-RAV; MES, 4 mM CaCl2, pH 6.5, room temperature"}, "20566-CC (NanA-DSM20566) [5]": {"target": "T3, 20566-CC (NanA-DSM20566)", "settings": "read-out: 20566-CC-KGV; MES, 4 mM CaCl2, pH 6.5, room temperature"}, "20566-CC (NanA-DSM20566) [6]": {"target": "20566-CC (NanA-DSM20566) (Streptococcus pneumoniae, UniProt P62576, DEL440-442)", "settings": "read-out: 20566-CC-ΔKGI; MES, 4 mM CaCl2, pH 6.5, room temperature"}, "[7]": {"test_system": "CC(=O)N[C@H]1[C@H]([C@H](O)[C@H](O)CO)O[C@@](Oc2ccc3c(C)cc(=O)oc3c2)(C(=O)O)C[C@@H]1O", "assay": "purified protein", "settings": "pH 6.5"}, "[8]": {"test_system": "CC(=O)N[C@H]1[C@H]([C@H](O)[C@H](O)CO)O[C@@](Oc2ccc3c(C)cc(=O)oc3c2)(C(=O)O)C[C@@H]1O", "assay": "purified protein", "settings": "pH 6.5", "remark": "listed apart in the source"}}}
{"compound": "CC(=O)N[C@H]1[C@H]([C@H](O)[C@H](O)CO)OC(C(=O)O)=C[C@@H]1O", "note": "[DANA, 2,3-dehydro-2-deoxy-N-acetylneuraminic acid]", "values": [{"measurement": "IC50", "setting": "20566-CC (NanA-DSM20566) [1]", "value": "2.35 ± 0.16", "unit": "µM"}, {"measurement": "IC50", "setting": "20566-LC (NanA-DSM20566)", "value": "3.8 ± 0.5", "unit": "µM"}, {"measurement": "IC50", "setting": "20566-CC (NanA-DSM20566) [2]", "value": "0.92 ± 0.71", "unit": "µM"}, {"measurement": "IC50", "setting": "20566-CC (NanA-DSM20566) [3]", "value": "4.56 ± 0.71", "unit": "µM"}]}
{"compound": "CC(=O)N[C@H]1[C@H]([C@H](O)[C@H](O)CO)O[C@@](Oc2ccc3c(C)cc(=O)oc3c2)(C(=O)O)C[C@@H]1O", "note": "[MUNANA, 2′-(4-methylumbelliferyl)-a-D-N-acetylneuraminic acid]", "values": [{"measurement": "Km", "setting": "20566-CC (NanA-DSM20566) [4]", "value": "17.9 ± 1.07", "unit": "µM"}, {"measurement": "Km", "setting": "20566-CC (NanA-DSM20566) [5]", "value": "32.8 ± 4.78", "unit": "µM"}, {"measurement": "Km", "setting": "20566-CC (NanA-DSM20566) [6]", "value": "> 1000", "unit": "µM"}]}
{"compound": "(Streptococcus pneumoniae R6)", "values": [{"measurement": "Km", "setting": "[7]", "value": "24.50 ± 2.71", "unit": "µM"}, {"measurement": "Km", "setting": "[8]", "value": "25.97 ± 2.19", "unit": "µM"}]}
